The assay relates to TSP-1 null mice. Description: Corneal fluorescein staining in murine model of Sjögren's syndrome. The assay is classed as in vivo. The following applies: 5 μL eye drops twice daily, 30 μM quercetin and/or 0.5 μM I3O in PBS. On the procedure:
Mice. Thrombospondin (TSP)-1 null mice (C57BL/6 background), were bred in-house in a pathogen-free facility at Boston University School of Medicine, Boston, Mass. All experiments were conducted in accordance with institutional guidelines and ARVO Statement of the Use of Animals in Ophthalmic and Vision Research.
Corneal Fluorescein Staining. Sodium fluorescein (1%), 1 μl was applied to the cornea of mice under anesthesia. Three minutes later, eyes were flushed with PBS to remove excess fluorescein, and corneal staining was evaluated and photographed with a slit lamp biomicroscope (Humphrey-Zeiss, Dublin, Calif.) using a cobalt blue light. Punctate staining was recorded using a standardized National Eye Institute grading system of 0 to 3 for each of the five areas of the cornea (Lemp, 1995, CLAO J. 21:221-232).
TSP-1 deficient (null) mice (12 wk old) were treated with eyedrops twice daily for a period of two weeks. The 5 μL eye drops were either PBS as a control or 0.5 μM I3O and 30 μM quercetin in PBS, 0.5 μM I3O alone in PBS, or 30 μM quercetin alone in PBS. […] Clinical signs of dry eye disease, including effect on the corneal surface and peroxidase levels in tears, were measured at baseline (prior to initiating treatment) and at the end of week 1 and effect on the corneal surface was assayed again at the end of week 2. […]

Each structure is given as a SMILES string.

Consider `O=C1Nc2ccccc2/C1=C1/Nc2ccccc2/C1=N\O` [Heterodimer I3O, indirubin-3′-oxime], for which the “corneal surface / corneal fluorescein score, week 2” value (week 2, FIG. 5) was “small improvement in corneal fluorescein score at week 2, but it was not significant”.

`O=c1c(O)c(-c2ccc(O)c(O)c2)oc2cc(O)cc(O)c12` [quercetin]: the “corneal surface / corneal fluorescein score, week 1” value (week 1, FIG. 5) is reported as “significant improvement in the corneal surface”.

Values taken from patent US11007177B2, “Compositions comprising a combination of a substituted flavonoid and a substituted indole for treating ocular diseases” (University of Macau, priority 2015, dated 2021).
